Here are results for 63 sequences from the OligoGym collection.

Bases are written 5' to 3'; sugars and linkages follow in the same order, as letters with counts (s phosphorothioate, o phosphodiester; PS: all linkages phosphorothioate). C may stand for cytosine or 5-methylcytosine; the collection does not tell. l = locked nucleic acid (LNA); d = 2'-deoxy (DNA)

This data set concerns the target HIF1A. Description: HeLa, 100 nM transfected, 24 h, mean of 3. The conditions noted are these: ASO.
The sequence “GTTACTGCCTTCTTAC (sugars ldldlddddddldlll, PS)” yielded a caspase activation (% of PBS control) of 231.
For “GGCAAGCATCCTG (sugars l2 d1 l1 d7 l2, PS)”, the caspase activation (% of PBS control) is 560.
The result for “TACTGCCTTCTTA (sugars l2 d8 l1 d1 l1, PS)” reads 223; that for “GTTACTGCCTTCTTAC (sugars l5 d6 l3 d1 l1, PS)”, 603; that for “GTTACTGCCTTCTTAC (sugars lldldddddddddldl, PS)”, 138.
The result for “GTTACTGCCTTCTTAC (sugars l2 d1 l2 d7 l4, PS)” reads 376.
The result for GGCAAGCATCCTG (sugars l1 d11 l1, PS) reads 316; that for GTTACTGCCTTCTTAC (sugars l2 d9 l5, PS), 328.
In the case of “GTTACTGCCTTCTTAC (sugars l3 d1 l1 d8 l3, PS)”, the caspase activation (% of PBS control) is 264.
With “TGGCAAGCATCCTGTA (sugars ldldddddddddlddl, PS)”, the caspase activation (% of PBS control) stood at 172.
As for “TGGCAAGCATCCTGTA (sugars ldldlddddddddddl, PS)”, the figure is 204; as for “TGGCAAGCATCCTGTA (sugars l2 d9 l2 d2 l1, PS)”, 422.
The result for “GTTACTGCCTTCTTAC (sugars l2 d1 l2 d8 l3, PS)” reads 318.
The result for TGGCAAGCATCCTGTA (sugars l4 d11 l1, PS) reads 422; that for “TGGCAAGCATCCTGTA (sugars lddllddddddldldl, PS)”, 402.
As to “GTTACTGCCTTCTTAC (sugars l3 d8 l1 d1 l3, PS)”, the caspase activation (% of PBS control) was determined as 197.
As for “TGGCAAGCATCCTGTA (sugars lddldddddddldldl, PS)”, the caspase activation (% of PBS control) is 274.
The result for “GTTACTGCCTTCTTAC (sugars ldldlddddddllddl, PS)” reads 282; that for ACTGCCTTCTTAC (sugars l2 d10 l1, PS), 171.
The result for GTTACTGCCTTCTTAC (sugars l5 d8 l3, PS) reads 512; that for GTTACTGCCTTCT (sugars l3 d8 l2, PS), 164; that for GTTACTGCCTTCTTAC (sugars l2 d10 l4, PS), 151.
As for GCAAGCATCCTGT (sugars l2 d8 l3, PS), the figure is 401.
Consider TGGCAAGCATCCT (sugars l3 d7 l3, PS), for which the caspase activation (% of PBS control) turned out to be 249.
On to “TGGCAAGCATCCTGTA (sugars lddlldddddddldll, PS)”, for which the caspase activation (% of PBS control) is 412.
As for “TGGCAAGCATCCTGTA (sugars llldlddddddlldll, PS)”, the figure is 458; as for “GTTACTGCCTTCTTAC (sugars lldldddddddllldl, PS)”, 307.
As for “GTTACTGCCTTCTTAC (sugars ldldlddddddddldl, PS)”, the caspase activation (% of PBS control) came out at 201.
The result for “GTTACTGCCTTCTTAC (sugars l5 d8 l1 d1 l1, PS)” reads 457; that for “GTTACTGCCTTCTTAC (sugars l1 d2 l2 d8 l3, PS)”, 248; that for TGGCAAGCATCCTGTA (sugars l4 d10 l2, PS), 396.
“GTTACTGCCTTCTTAC (sugars l1 d11 l1 d1 l2, PS)” displayed a caspase activation (% of PBS control) of 117.
For the sequence “TGGCAAGCATCCTGTA (sugars ldldlddddddlldll, PS)”, the caspase activation (% of PBS control) is 263.
The result for “TTACTGCCTTCTT (sugars l3 d7 l1 d1 l1, PS)” reads 205; that for “TGGCAAGCATCCTGTA (sugars l1 d1 l1 d10 l3, PS)”, 188.
The result for “TACTGCCTTCTTA (sugars l1 d2 l1 d6 l3, PS)” reads 246; that for “CAAGCATCCTGTA (sugars l1 d2 l1 d6 l3, PS)”, 97.
Regarding “GCAAGCATCCTGT (sugars l2 d1 l1 d8 l1, PS)”, the caspase activation (% of PBS control) stood at 314.
As for “TGGCAAGCATCCTGTA (sugars ldldddddddddlldl, PS)”, the figure is 281; as for “TGGCAAGCATCCTGTA (sugars lddllddddddldddl, PS)”, 361.
The result for CAAGCATCCTGTA (sugars l4 d8 l1, PS) reads 194; that for “GTTACTGCCTTCTTAC (sugars lddlddddddddldll, PS)”, 130.
As for GCAAGCATCCTGT (sugars l1 d11 l1, PS), the figure is 137; as for “GTTACTGCCTTCTTAC (sugars ldlllddddddldddl, PS)”, 453.
Take “TGGCAAGCATCCTGTA (sugars lldldddddddllldl, PS)”: the caspase activation (% of PBS control) came out at 419.
As for “TGGCAAGCATCCTGTA (sugars llddldddddddlddl, PS)”, the figure is 354.
The result for “GGCAAGCATCCTG (sugars l1 d1 l2 d6 l3, PS)” reads 495.
As for “TGGCAAGCATCCTGTA (sugars l3 d1 l1 d10 l1, PS)”, the figure is 354.
The sequence “GTTACTGCCTTCTTAC (sugars lldllddddddllddl, PS)” displayed a caspase activation (% of PBS control) of 356.
As for “TGGCAAGCATCCTGTA (sugars l5 d6 l3 d1 l1, PS)”, the figure is 366; as for “GTTACTGCCTTCTTAC (sugars l4 d7 l2 d2 l1, PS)”, 264; as for TACTGCCTTCTTA (sugars l2 d10 l1, PS), 152.
As for “GTTACTGCCTTCTTAC (sugars l3 d8 l1 d3 l1, PS)”, the figure is 198; as for “GTTACTGCCTTCTTAC (sugars l2 d10 l1 d2 l1, PS)”, 123; as for “GTTACTGCCTTCTTAC (sugars ldlddddddddllddl, PS)”, 158.
In turn, “GTTACTGCCTTCTTAC (sugars ldldldddddddldll, PS)” registered a caspase activation (% of PBS control) of 214.
As for “GTTACTGCCTTCTTAC (sugars llddlddddddllldl, PS)”, the figure is 373; as for “TGGCAAGCATCCTGTA (sugars ldldddddddddldll, PS)”, 252.
The sequence “TGGCAAGCATCCTGTA (sugars ldddlddddddddldl, PS)” yielded a caspase activation (% of PBS control) of 139.
Sequence “TGGCAAGCATCCTGTA (sugars ldllddddddddlldl, PS)” returned a caspase activation (% of PBS control) of 412.
As for “TGGCAAGCATCCTGTA (sugars ldlllddddddllldl, PS)”, the caspase activation (% of PBS control) turned out to be 490.
The result for “GCAAGCATCCTGT (sugars lddlddddddldl, PS)” reads 109; that for “GTTACTGCCTTCTTAC (sugars lldllddddddlddll, PS)”, 261.
